{"source": "patent US5786145A", "about": "“Oligonucleotide competitors for binding of HIV RRE to REV protein and assays for screening inhibitors of this binding” (Medical Research Council, priority 1995, dated 1998)", "set-up_in_all_cases": "species or system HIV-1", "key": {"rev protein [1]": {"tested_on": "rev protein", "experiment": "Saturation binding of rev protein to labelled RBC6 (FIG. 15)", "settings": "1.5 nM labelled RBC6, 0-50 nM rev; read-out: Kd from saturation binding, Scatchard plot", "experimental": "(§1) Binding experiments were carried out using labelled RBC6 (SEQ ID NO:20 and SEQ ID NO:21) duplex formed frm the 5'-^32 P-labelled 14-mer oligoribonucleotide annealed to the 15 mer (0.6 nM) and 0-150 nM unlabelled RBC6 in the presence of 24 nM rev protein.\nThe mixtures for binding (0.5 ml) included 1.5 nM ^32 P-labelled RBC6 (SEQ ID NO:20 and SEQ ID NO:21) (ca. 20,000 cpm), varying concentrations (0-50 nM) of rev protein and 80 units/ml RNasin in TK buffer. The filter binding assays were carried out as described above, and the results were plotted on a graph (FIG. 15)."}, "rev protein [2]": {"tested_on": "rev protein", "experiment": "Scatchard analysis of RBC6 binding to rev (FIG. 14)", "settings": "0.6 nM labelled RBC6, 0-150 nM unlabelled RBC6, 24 nM rev; read-out: Kd (binding constant) from Scatchard plot", "experimental": "as §1\nThe mixtures for binding (0.5 ml) included 0.6 nM ^32 P-labelled RBC6 (SEQ ID NO:20 and SEQ ID NO:21) (ca. 20,000 cpm), 24 nM rev protein, varying concentrations (0-150 nM) of unlabelled RBC6 (SEQ ID NO:20 and SEQ ID NO:21) and 80 units/ml RNasin in TK buffer. The filter binding assays were carried out as described above, and a Scatchard plot (FIG. 14) was obtained from the results."}, "rev protein [3]": {"tested_on": "rev protein", "experiment": "Competition filter binding against 32P-labelled R7 (FIGS. 13, 17)", "settings": "1.5 nM labelled R7, 24 nM rev, 0-60 nM competitor", "experimental": "In these experiments, uniformly ^32 P-labelled R7 (1.5 nM) was competed against 0-60 nM unlabelled competitor RNA in the presence of 24 nM rev protein.\nThe mixtures for competition binding (0.5 ml) included 1.5 nM ^32 P-labelled R7 (ca. 20,000 cpm), 24 nM rev protein, 1.5 ug/ml calf thymus DNA, 0.67 ug/ml yeast rRNA, varying concentrations (0-60 nM) of unlabelled competitor RNA and 80 units/ml RNasin in TK buffer (50 mM Tris-HCl (pH7.9) and 20 mM KCl). Binding was allowed to take place for more than 15 min on ice, and each mixture was passed through a Millipore GS filter (a 2.5 cm disk with a pore size of 0.22 um) prewashed twice with 0.6 ml of ice-cold TK buffer. The filter was washed with 0.6 ml of cold TK buffer and dried. The radioactivity retained on the filter was counted by liquid scintillation, and the results were plotted on a graph (FIG. 13)."}}, "data": [{"substance": "RBC6: chemically synthesized RNA duplex (14-mer annealed to 15-mer), bubble with six base pairs on each side (chain 1 CGUGUGGGCGCAGC; chain 2 GCUGCGGUACACACG; RNA, backbone not given here)", "values": [{"measurement": "Kd", "setting": "rev protein [1]", "value": 3.8, "unit": "nM"}, {"measurement": "Kd", "setting": "rev protein [2]", "value": "~3", "unit": "nM"}, {"measurement": "competition for rev binding against labelled R7, result in words", "setting": "rev protein [3]", "value": "competed about half as well as R7"}]}]}
